Test results reported in paper PMC10360169 (Frontiers in Immunology, 2023).

Tests used:
[1] = tested on: Acar19; assay type: binding, great reed warbler Acrocephalus arundinaceus; conditions: Table S5, half-life estimated from dissociation in scintillation proximity assay
[2] = tested on: Acar3; assay type: binding, great reed warbler Acrocephalus arundinaceus; conditions: for Stability T½ of Acar3 in complex with the peptide: Table S1, top 94 PSCPL-scoring peptides, SPA, 10µM peptide, 125I β2m, folding over night at 18°C, dissociation measured up to 24 hours at 37°C; for Stability T½ (h), peptide - Acar3: Table S5, half-life estimated from dissociation in scintillation proximity assay

Sequence	Stability T½ (h), peptide - Acar19 [1]	also measured
AFHQLVQVI [9-mer peptide]	0.3 h	
AYAGLFTPL [9-mer peptide]	0.4 h	
DAAKNQVAM [9-mer peptide]	0.2 h	
DAAVVFPPV [9-mer peptide]	10.0 h	
DALLNEENL [9-mer peptide]	2.0 h	
DAMENPLSL [9-mer peptide]	0.2 h	
DASFNASAI [9-mer peptide]	1.0 h	
DAVRNAAAI [9-mer peptide]	0.3 h	
DFGYATMAK [9-mer peptide]	0.3 h	
DFIANTETI [9-mer peptide]	4.7 h	
DFISMYFPW [9-mer peptide]	0.5 h	
DFNEAIQAY [9-mer peptide]	0.3 h	
DHIPIINTL [9-mer peptide]	0.3 h	
DIKLIDIAL [9-mer peptide]	3.7 h	
DIQKLVGKL [9-mer peptide]	0.4 h	
DISPTNIPL [9-mer peptide]	0.2 h	
DMNLEQWSV [9-mer peptide]	0.4 h	
DMSTNAEYF [9-mer peptide]	0.2 h	
DMWEHAFYL [9-mer peptide]	0.3 h	
DPNPQEMVL [9-mer peptide]	0.1 h	
DPNPQEVVL [9-mer peptide]	0.4 h	
DPSGAYFAW [9-mer peptide]	0.1 h	
DQIRNMSVI [9-mer peptide]	0.3 h	
DSFPNSVTI [9-mer peptide]	1.4 h	
DSIMLTATF [9-mer peptide]	1.5 h	
DTAKAFAYL [9-mer peptide]	0.5 h	

Sequence	Stability T½ (h), peptide - Acar19 [1]	also measured
DTDPLPVVF [9-mer peptide]	0.2 h	
DTETLTTMF [9-mer peptide]	0.1 h	
DTFGVIDTM [9-mer peptide]	0.2 h	
DTRAIDQFF [9-mer peptide]	2.3 h	
DVAKIEAPL [9-mer peptide]	11.4 h	
DVSPILEAY [9-mer peptide]	0.1 h	
DVVPMVTQM [9-mer peptide]	0.6 h	
DWMERIEDF [9-mer peptide]	1.4 h	
DWSGYSGSF [9-mer peptide]	0.3 h	
DYAMHGTVF [9-mer peptide]	2.4 h	
DYLQCVLQI [9-mer peptide]	6.6 h	
DYLQYVLQI [9-mer peptide]	0.5 h	
EAAGIAACL [9-mer peptide]	0.6 h	
EAAKNVECI [9-mer peptide]	0.4 h	
EDFEIFYNL [9-mer peptide]	0.4 h	
EFKQILTDF [9-mer peptide]	3.6 h	
ENALLVALF [9-mer peptide]	0.1 h	
ETFRLLRSF [9-mer peptide]	0.1 h	
EYAPFARLL [9-mer peptide]	1.1 h	
EYARQVQMI [9-mer peptide]	0.4 h	
FFSPVIASL [9-mer peptide]	0.9 h	
FSIMIYFTF [9-mer peptide]	0.2 h	
FSPRLCRPF [9-mer peptide]	0.4 h	
FWPQHFGLI [9-mer peptide]	0.1 h	
FYPPVLQPI [9-mer peptide]	0.3 h	
GFNKLRSTL [9-mer peptide]	0.4 h	

Sequence	Stability T½ (h), peptide - Acar19 [1]	also measured
GFPSLESSF [9-mer peptide]	0.1 h	
GYAWIDFDI [9-mer peptide]	0.2 h	
HAATNFREI [9-mer peptide]	0.1 h	
HTAEIQQFF [9-mer peptide]	0.3 h	
HYNAFHWAI [9-mer peptide]	0.3 h	
HYNAFQWAI [9-mer peptide]	0.3 h	
IAAPNMIAV [9-mer peptide]	0.1 h	
IAASNLEQF [9-mer peptide]	0.1 h	
IAKGIDAEF [9-mer peptide]	0.1 h	
IALPVAWLF [9-mer peptide]	0.1 h	
IANTTDHFF [9-mer peptide]	0.2 h	
IASPILFPF [9-mer peptide]	0.5 h	
IFDDLQGSL [9-mer peptide]	0.1 h	
IFPSMYFLM [9-mer peptide]	0.1 h	
IPAPGLGAL [9-mer peptide]	0.2 h	
IPKYLEIEI [9-mer peptide]	0.2 h	
IPNYLEIEI [9-mer peptide]	0.6 h	
IQNALEKAL [9-mer peptide]	0.1 h	
IQNATMDEF [9-mer peptide]	0.1 h	
IQNEIMKPL [9-mer peptide]	0.2 h	
IQNKLSSTF [9-mer peptide]	0.2 h	
ISARGQELF [9-mer peptide]	0.1 h	
ISASLAALF [9-mer peptide]	0.1 h	
ISDPLTSGL [9-mer peptide]	0.1 h	
ITAALAWSL [9-mer peptide]	0.1 h	
ITDWLNFTL [9-mer peptide]	0.1 h	

Sequence	Stability T½ (h), peptide - Acar19 [1]	also measured
ITFHNQRDF [9-mer peptide]	0.2 h	
IYAAISYMI [9-mer peptide]	0.3 h	
IYGIFQSTF [9-mer peptide]	0.1 h	
IYTVIYYIF [9-mer peptide]	0.2 h	
IYYWTAWLI [9-mer peptide]	0.2 h	
KASSAWHYF [9-mer peptide]	0.2 h	
KDPENFDHF [9-mer peptide]	0.2 h	
KFHQIEKEF [9-mer peptide]	0.3 h	
KSNGAQQWL [9-mer peptide]	0.1 h	
LAASVFFTF [9-mer peptide]	0.2 h	
LFPELDCFF [9-mer peptide]	1.6 h	
LMNELGVPF [9-mer peptide]	0.6 h	
LRHSTAHLL [9-mer peptide]	0.1 h	
LYIEILRLL [9-mer peptide]	0.1 h	
LYPTFYCLF [9-mer peptide]	0.4 h	
MAMGILHTI [9-mer peptide]	0.1 h	
MFMMIFHFV [9-mer peptide]	0.4 h	
MPARLWLCL [9-mer peptide]	0.9 h	
MSNPLTSPI [9-mer peptide]	6.3 h	
MYLRTIYDL [9-mer peptide]	4.0 h	
MYMALIAAF [9-mer peptide]	0.3 h	
NAFHHPSAV [9-mer peptide]	0.1 h	
NHIRIEYII [9-mer peptide]	0.4 h	
NPLEIYQEI [9-mer peptide]	0.8 h	
NPSVLKILL [9-mer peptide]	0.2 h	
NTARLMAGA [9-mer peptide]	0.2 h	

Sequence	Stability T½ (h), peptide - Acar19 [1]	also measured
NTDEIPELI [9-mer peptide]	0.2 h	
NTFAAWLPM [9-mer peptide]	0.6 h	
NVGRILGYV [9-mer peptide]	0.5 h	
NYFNRMFHF [9-mer peptide]	0.7 h	
NYMPYVFTL [9-mer peptide]	14.9 h	
NYNGLLSSI [9-mer peptide]	19.1 h	
QRASNVFDL [9-mer peptide]	0.2 h	
QTSSIEGAW [9-mer peptide]	0.1 h	
QYPAFVLFI [9-mer peptide]	0.2 h	
RPAPATGAL [9-mer peptide]	0.3 h	
SFHIIEWLF [9-mer peptide]	0.2 h	
SFIPIFYQF [9-mer peptide]	1.2 h	
STAPTGSWF [9-mer peptide]	0.2 h	
STYGISEDL [9-mer peptide]	0.1 h	
SYLGLTQPF [9-mer peptide]	0.2 h	
SYLQAIGIL [9-mer peptide]	0.1 h	
SYQALAFDI [9-mer peptide]	0.5 h	
TFMGMNVQF [9-mer peptide]	0.1 h	
TFMYVFSTF [9-mer peptide]	0.2 h	
TNTQNNDWF [9-mer peptide]	0.2 h	
YMWLGARYL [9-mer peptide]		Stability T½ of Acar3 in complex with the peptide [2]: 24 min; Stability T½ (h), peptide - Acar3 [2]: 0.4 h
YWMGGTTYF [9-mer peptide]		Stability T½ of Acar3 in complex with the peptide [2]: 48 min; Stability T½ (h), peptide - Acar3 [2]: 0.8 h
